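Test compounds were applied to cells in 96-well plates for 48 hours at 5 doses. At the TGI there is no net growth.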
Assays:
Test in all cases: NCI anticancer screen, dose series, 48 h
COLO 205 colon = test system: COLO 205 colon
SNB-75 CNS = test system: SNB-75 CNS
MDA-N = test system: MDA-N
OVCAR-5 ovarian = test system: OVCAR-5 ovarian
M14 melanoma = test system: M14 melanoma
NCI-H23 lung = test system: NCI-H23 lung
SW-620 colon = test system: SW-620 colon
HT29 colon = test system: HT29 colon
DU-145 prostate = test system: DU-145 prostate
OVCAR-4 ovarian = test system: OVCAR-4 ovarian
MALME-3M melanoma = test system: MALME-3M melanoma
SF-268 CNS = test system: SF-268 CNS
OVCAR-8 ovarian = test system: OVCAR-8 ovarian
EKVX NSCLC = test system: EKVX NSCLC
ACHN renal = test system: ACHN renal
CAKI-1 renal = test system: CAKI-1 renal
MDA-MB-435 = test system: MDA-MB-435
A498 renal = test system: A498 renal
UO-31 renal = test system: UO-31 renal
BT-549 breast = test system: BT-549 breast
HCT-15 colon = test system: HCT-15 colon
UACC-257 melanoma = test system: UACC-257 melanoma
SR leukemia = test system: SR leukemia
PC-3 prostate = test system: PC-3 prostate
KM12 colon = test system: KM12 colon
SN12C renal = test system: SN12C renal
CCRF-CEM leukemia = test system: CCRF-CEM leukemia
HOP-62 NSCLC = test system: HOP-62 NSCLC
RXF 393 renal = test system: RXF 393 renal
HCT-116 colon = test system: HCT-116 colon
A549 NSCLC = test system: A549 NSCLC
HL-60(TB) leukemia = test system: HL-60(TB) leukemia
SF-539 CNS = test system: SF-539 CNS
MCF7 breast = test system: MCF7 breast
HCC-2998 colon = test system: HCC-2998 colon
LOX IMVI melanoma = test system: LOX IMVI melanoma
NCI/ADR-RES ovarian = test system: NCI/ADR-RES ovarian
TK-10 renal = test system: TK-10 renal
SNB-19 CNS = test system: SNB-19 CNS
MDA-MB-231 breast = test system: MDA-MB-231 breast
RPMI-8226 leukemia = test system: RPMI-8226 leukemia
MOLT-4 leukemia = test system: MOLT-4 leukemia
K-562 leukemia = test system: K-562 leukemia
NCI-H226 lung = test system: NCI-H226 lung
SK-MEL-2 melanoma = test system: SK-MEL-2 melanoma
IGROV1 ovarian = test system: IGROV1 ovarian
SK-MEL-28 melanoma = test system: SK-MEL-28 melanoma
HOP-92 NSCLC = test system: HOP-92 NSCLC
SF-295 CNS = test system: SF-295 CNS
OVCAR-3 ovarian = test system: OVCAR-3 ovarian
U251 CNS = test system: U251 CNS
NCI-H460 lung = test system: NCI-H460 lung
786-0 renal = test system: 786-0 renal
SK-MEL-5 melanoma = test system: SK-MEL-5 melanoma

Measured: TGI

O=C=NCCCCCCN1C(=O)N2C(c3ccccc3)N(CCCCCCN=C=O)C(=O)N2C1c1ccccc1 (centres undefined)
> 100 µM: all assays above

From PubChem BioAssay (NCI)
